Data from paper PMC10383271.

Key:
[1] = test system: normal human dermal fibroblasts (NHDF); test: MTT assay, viability of NHDF cell culture (ISO 10993 part 5); format: cell-based; conditions: NHDF cell cultures, 24 h incubation; for IC50: Homo sapiens, MTT, mean (± SD), n = 5
Procedure: The viability of the normal human dermal fibroblasts (NHDF) cell culture after 24 h incubation with the tested compounds 5a-c-7a-c was assessed by carrying out the MTT assay. This test was performed according to ISO 10993 part 5, Appendix C. For all tested compounds, the IC50 values were calculated using four-parameter logistics. Normal human dermal fibroblasts (NHDF) were purchased from the American Type Culture Collection (ATCC) for cytotoxicity evaluation of the tested compounds. The cells were grown in Dulbecco's Modified Eagle Medium DMEM with […] glucose without phenol red supplemented with 10% FBS and 2 mM L-glutamine, and 25 μg/mL gentamicin. The NHDF cells were cultured under standard conditions (5% CO2, 37 °C, and 95% humidity) with evaluation morphology and confluence at least twice a week. For the assay, the cells were used only in a logarithmic growth phase, and the TrypLE solution was used for 2 min at 37 °C to detach cells. Then, the TrypLE solution was inactivated by adding a culture medium, and the suspension of cells was collected into a tube and centrifuged for 5 min at 1000 rpm. Then, the supernatant was removed, fresh medium was added, and the pellet was resuspended and calculated using the […] chamber. The suspension of cells was prepared to allow seeding 10,000 cells/well density and incubated for 24 h to regenerate in CO2-incubator. The tested compounds were dissolved in DMSO to a final concentration of 10 mM and stored at -20 °C. Before use, the compound solution was kept at room temperature until thawing, and then, samples with 3 different concentrations of compounds were prepared (100 μM, 50 μM, and 10 μM) for each compound. The tested concentrations of compounds were prepared in a culture medium. […] The evaluation of the cytotoxicity of the newly synthesized compounds was carried out in accordance with the ISO 10,993 part V standard by performing the MTT test. After seeding at a density of 10,000 cells per well and adhering overnight, the NHDF cells were treated with the test compounds for 24 h in a CO2 incubator. The supernatant was then removed, the cells were washed with PBS, a 1mg/mL solution of MTT dissolved in MEM was added, and the cultures were re-incubated for 2 h in a CO2 incubator. The medium was then removed, and for a further 30 min, the formazan crystals were dissolved in 100 μL of isopropanol. The absorbance was measured with a Varioskan Go microplate reader at a wavelength of 570 nm. […] For enzyme assays, the IC50 was calculated according to the procedure provided by the kit manufacturer. The significance was set at p < 0.05. Based on the tests performed, the test power was calculated to be greater than 80%.

[2] = molecular target: human serum albumin (HSA) (Homo sapiens, UniProt P02768); test: Fluorescence quenching titration of HSA; conditions: for Kd: logKb; for ΔG°: one value per compound, temperature not given; for ΔH° / ΔS°: van't Hoff
[3] = test system: alpha-1-acid glycoprotein (AAG); test: Fluorescence quenching titration of AAG
Procedure: Aex is the absorbance at excitation wavelengths, and Aem is the absorbance at emission wavelengths.
The correlation between the stability constant of complexes Kb and standard thermodynamic parameters enthalpy change (ΔH°), and entropy change (ΔS°) was determined by the van’t Hoff Equation (4):(4) logKb=−∆H^°/RT+∆S^°/R where R is the universal gas constant; the free energy change (ΔG°) can be calculated by following Equation (5):(5) ∆G^°=∆H^°−T∆S^°=−RTlnKb
The fluorescence study was performed on a Cary Eclipse 500 spectrophotometer (Agilent, Santa Clara, CA, USA). The spectra were recorded in a cuvette with 10 mm path length at an emission range of 300–500 nm, and the excitation wavelength was 280 nm.

COX-2 = molecular target: T1, COX-2 (Homo sapiens, UniProt P35354); test: COX-2 inhibition, Cayman's COX Colorimetric Inhibitor Screening Assay Kit; conditions: for Selectivity Index (SI): COX-2 IC50/COX-1 IC50
T1 sequence (P35354 18-604): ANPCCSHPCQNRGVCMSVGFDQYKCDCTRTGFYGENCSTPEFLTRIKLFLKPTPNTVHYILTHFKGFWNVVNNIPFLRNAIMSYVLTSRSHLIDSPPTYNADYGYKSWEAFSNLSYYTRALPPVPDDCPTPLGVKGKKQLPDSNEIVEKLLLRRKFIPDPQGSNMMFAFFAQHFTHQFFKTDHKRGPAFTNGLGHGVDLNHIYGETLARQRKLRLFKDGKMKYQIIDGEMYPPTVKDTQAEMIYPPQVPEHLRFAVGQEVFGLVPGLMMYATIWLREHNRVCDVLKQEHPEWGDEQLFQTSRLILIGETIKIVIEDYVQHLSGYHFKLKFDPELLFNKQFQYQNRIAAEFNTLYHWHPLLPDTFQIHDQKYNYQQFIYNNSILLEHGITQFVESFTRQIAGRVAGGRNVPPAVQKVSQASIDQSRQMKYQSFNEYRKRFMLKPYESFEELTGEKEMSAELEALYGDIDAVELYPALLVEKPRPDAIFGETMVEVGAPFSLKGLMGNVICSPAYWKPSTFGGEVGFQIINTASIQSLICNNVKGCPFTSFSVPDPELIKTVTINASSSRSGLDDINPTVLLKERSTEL

Chain of human serum albumin (HSA) (P02768 25-609): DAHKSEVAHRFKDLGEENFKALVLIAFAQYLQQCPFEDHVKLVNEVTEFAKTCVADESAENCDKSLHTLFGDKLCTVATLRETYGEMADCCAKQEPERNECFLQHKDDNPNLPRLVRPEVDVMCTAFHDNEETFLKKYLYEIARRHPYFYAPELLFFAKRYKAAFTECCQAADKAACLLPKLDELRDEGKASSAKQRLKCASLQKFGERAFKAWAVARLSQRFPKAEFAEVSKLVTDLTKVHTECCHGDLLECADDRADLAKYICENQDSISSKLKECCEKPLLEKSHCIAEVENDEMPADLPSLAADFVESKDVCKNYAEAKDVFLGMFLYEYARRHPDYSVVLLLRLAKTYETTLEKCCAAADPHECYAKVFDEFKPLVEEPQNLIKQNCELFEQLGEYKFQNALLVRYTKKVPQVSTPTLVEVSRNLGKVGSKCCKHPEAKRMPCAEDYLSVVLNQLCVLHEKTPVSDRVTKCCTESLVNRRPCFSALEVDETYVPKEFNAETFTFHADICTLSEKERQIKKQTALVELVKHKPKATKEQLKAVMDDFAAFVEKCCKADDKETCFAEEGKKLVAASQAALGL

Row | SMILES | IC50 [1] | Cell Morphology in Culture [1] | melting point | Ksv ([2]; T 297 K) | kq ([2]; T 297 K) | n (number of binding sites) ([2]; T 297 K) | Ksv ([2]; T 303 K) | kq ([2]; T 303 K) | n (number of binding sites) ([2]; T 303 K) | Ksv ([2]; T 308 K) | kq ([2]; T 308 K) | n (number of binding sites) ([2]; T 308 K) | Kd ([2]; T 297 K) | Kd ([2]; T 303 K) | Kd ([2]; T 308 K) | ΔG° [2] | ΔH° [2] | ΔS° [2] | Ksv ([3]; T 297 K) | kq ([3]; T 297 K) | also measured
1 | CCCCn1c(C)c2c(OCC(=O)N/N=C/c3ccccc3)nn(C)c(=O)c2c1C [Compound 5a, N-[(Z/E)-benzylideneamino]-2-(6-butyl-3,5,7-trimethyl-4-oxo-pyrrolo[3,4-d]pyridazin-1-yl)oxy-acetamide] | 85.6 ± 2.5 µM | Cells with an elongated shape characteristic of fibroblasts, the granularities were observed in 3–5 fields of view from 10 analyzed fields. | 210 to 212 °C | 1.87 ± 0.04 × 10^5 dm^3·mol^−1 | 1.87 × 10^13 dm^3·mol^−1·s^−1 | 0.97 ± 0.04 | 1.71 ± 0.03 × 10^5 dm^3·mol^−1 | 1.71 × 10^13 dm^3·mol^−1·s^−1 | 0.95 ± 0.02 | 1.41 ± 0.03 × 10^5 dm^3·mol^−1 | 1.41 × 10^13 dm^3·mol^−1·s^−1 | 0.92 ± 0.02 | 7.94 µM | 11.2 µM | 20.9 µM | -6.979 kcal/mol | -16.14 kcal/mol | −129.11 J·mol^−1·K^−1 | 9.04 ± 0.16 ·10^4 dm^3·mol^−1 | 9.04 ·10^12 dm^3·mol^−1·s^−1 | logKb ([3]; T 297 K): 1.82 ± 0.12; Ksv ([3]; T 303 K): 3.15 ± 0.41 ·10^4 dm^3·mol^−1; kq ([3]; T 303 K): 3.15 ·10^12 dm^3·mol^−1·s^−1; logKb ([3]; T 303 K): 1.73 ± 0.27; Ksv ([3]; T 308 K): 1.11 ± 0.16 ·10^4 dm^3·mol^−1; kq ([3]; T 308 K): 1.11 ·10^12 dm^3·mol^−1·s^−1; logKb ([3]; T 308 K): 1.62 ± 0.26; IC50 (COX-2): 17.2 ± 1.4 µM; Selectivity Index (SI) (COX-2): 0.21
2 | Cc1c2c(OCC(=O)N/N=C/c3ccccc3)nn(C)c(=O)c2c(C)n1-c1ccccc1 [Compound 5b, N-[(Z/E)-benzylideneamino]-2-(3,5,7-trimethyl-4-oxo-6-phenyl-pyrrolo[3,4-d]pyridazin-1-yl)oxy-acetamide] | 486 ± 6.5 µM | Normal morphology of fibroblasts-elongated cells, single granular cells in 1 of 10 assessed fields of view. | 274 to 275 °C | 5.55 ± 0.33 × 10^5 dm^3·mol^−1 | 5.55 × 10^13 dm^3·mol^−1·s^−1 | 1.15 ± 0.06 | 5.26 ± 0.28 × 10^5 dm^3·mol^−1 | 5.26 × 10^13 dm^3·mol^−1·s^−1 | 1.10 ± 0.10 | 4.75 ± 0.23 × 10^5 dm^3·mol^−1 | 4.75 × 10^13 dm^3·mol^−1·s^−1 | 1.02 ± 0.05 | 0.263 µM | 0.49 µM | 1.45 µM | -9.001 kcal/mol | -27.77 kcal/mol | −264.38 J·mol^−1·K^−1 | 10.41 ± 1.08 ·10^4 dm^3·mol^−1 | 10.41 ·10^12 dm^3·mol^−1·s^−1 | logKb ([3]; T 297 K): 2.71 ± 0.21; Ksv ([3]; T 303 K): 11.41 ± 1.42 ·10^4 dm^3·mol^−1; kq ([3]; T 303 K): 11.41 ·10^12 dm^3·mol^−1·s^−1; logKb ([3]; T 303 K): 2.53 ± 0.15; Ksv ([3]; T 308 K): 8.39 ± 1.24 ·10^4 dm^3·mol^−1; kq ([3]; T 308 K): 8.39 ·10^12 dm^3·mol^−1·s^−1; logKb ([3]; T 308 K): 2.35 ± 0.12; IC50 (COX-2): 22.7 ± 1.2 µM; Selectivity Index (SI) (COX-2): 0.25
3 | Cc1c2c(OCC(=O)N/N=C/c3ccccc3)nn(C)c(=O)c2c(C)n1-c1cccc(Cl)c1 [Compound 5c, N-[(Z/E)-benzylideneamino]-2-[6-(3-chlorophenyl)-3,5,7-trimethyl-4-oxo-pyrrolo[3,4-d]pyridazin-1-yl]oxyacetamide] | 95.2 ± 1.5 µM | Cells with an elongated shape characteristic of fibroblasts, the granularities were observed in 3–5 fields of view from 10 analyzed fields. | 273 to 275 °C | 4.33± 0.25 × 10^5 dm^3·mol^−1 | 4.33 × 10^13 dm^3·mol^−1·s^−1 | 0.92 ± 0.06 | 3.86 ± 0.13 × 10^5 dm^3·mol^−1 | 3.86 × 10^13 dm^3·mol^−1·s^−1 | 0.90 ± 0.02 | 2.87 ± 0.12 × 10^5 dm^3·mol^−1 | 2.87 × 10^13 dm^3·mol^−1·s^−1 | 0.85 ± 0.04 | 6.17 µM | 8.91 µM | 26.3 µM | -7.163 kcal/mol | -23.45 kcal/mol | −229.47 J·mol^−1·K^−1 | 15.87± 2.41 ·10^4 dm^3·mol^−1 | 15.87 ·10^12 dm^3·mol^−1·s^−1 | logKb ([3]; T 297 K): 2.64 ± 0.16; Ksv ([3]; T 303 K): 14.60 ± 2.05 ·10^4 dm^3·mol^−1; kq ([3]; T 303 K): 14.60 ·10^12 dm^3·mol^−1·s^−1; logKb ([3]; T 303 K): 2.47 ± 0.17; Ksv ([3]; T 308 K): 9.99 ± 1.60 ·10^4 dm^3·mol^−1; kq ([3]; T 308 K): 9.99 ·10^12 dm^3·mol^−1·s^−1; logKb ([3]; T 308 K): 2.31 ± 0.20; IC50 (COX-2): 23.6 ± 2.5 µM; Selectivity Index (SI) (COX-2): 0.23
